Source: patent publication US20180057465A1, “Inhibitors of Necroptosis” (Catalyst Therapeutics Pty Ltd, priority 2015, published 2018)
Read-outs that look alike come from different tables or passages of the source.

How the values were obtained:
[1] = test system: U937 human histiocytic leukemia cell line; test: Assay 2: inhibition of TSQ induced necroptosis, 96 well plate format; conditions: read-out: Inhibition of TSQ-induced necroptosis (cell based assay) IC50 (U937, TSQ nM)
Method: (§1) Assay 2: Screening Compounds for Inhibition of TSQ Induced Necroptosis, 96 Well Plate Format.
(§2) Cell Line ID: U937 human histiocytic leukemia cell line.
(§3) Cell Concentration (cells/well): Final cell density is 5000 cells per well.
(§4) Cell growth medium: HT-RPMI+7.4% FBS. Cells are cultured in Corning 150 cm^2 tissue culture flasks with vented caps at 37° C./5% CO2.
(§5) Incubation time (hours): 48 hours following addition of compounds and death stimuli
(§6) Compound concentration: 100 nM
(§7) DMSO final concentration (% v/v): 0.3%.
(§8) Compounds that are in the Death Stimulation Cocktail and Their Final Concentrations:
(§9) hTNF-Fc (100 ng/ml)—produced by standard procedures as shown in Bossen et al., J Biol Chem, 2006, 281(20), 13964-13971.
(§10) Compound A (500 nM)—Smac mimetic, Tetralogic
(§11) Q-VD-OPh (10 μM)—MP Biomedicals
(§12) Data is loaded into Abase and normalised. 10 points titration curve are fitted with the 4 parameter logistic nonlinear regression model and the IC50 reported reflects the inflection point of the curve for curve fitting.

U937 = test: Off-target effect (cell based assay), reported with assay 2; conditions: Homo sapiens
Method: as §1, §2, §3, §4, §5, §6, §7, §12

[2] = test system: U937 human histiocytic leukemia cell line; test: Off-target effect (cell based assay), reported with assay 1; conditions: U-937, Table 1, assay 1, read-out: Off-target effect (cell based assay) IC50
Method: (§13) Assay 1: Screening Compounds for Inhibition of TSQ Induced Necroptosis, 96 Well Plate Format.
(§14) Cell Line ID: […] human histiocytic leukemia cell line.
(§15) Cell Concentration (cells/well): 35,000 per well in 120 μL of media, counted and plated immediately prior to addition of inhibitor and death stimuli. Final well volume of 150 μL after addition of compounds and death stimuli
(§16) Cell growth medium: HTRPMI (WEHI Media kitchen, contains L-Glutamine and penicillin, streptomycin)—supplemented with 7.4% v/v FCS (Gibco, Precision Plus. Lot #1221437)
as §5
(§17) Compound Concentrations—Log Titrations:
(§18) DMSO final concentration (% v/v): 1.2% in 10 μM well to 0.2% in the control well.
(§19) Cells treated with PI staining (1 μg/ml) and analysed by flow cytometry

[3] = test system: U937 human histiocytic leukemia cell line; test: Assay 1: inhibition of TSQ induced necroptosis, 96 well plate format; type: cell-based; conditions: U-937, Table 1, assay 1, hTNF-Fc 100 ng/ml, Compound A 500 nM, Q-VD-OPh 10 μM, 48 hours, PI staining, flow cytometry, read-out: Inhibition of TSQ-induced necroptosis (cell based assay) IC50
Method: For in vitro analysis, the necroptosis inhibition may be determined by assays used to measure TSQ-induced necroptosis, as described in the biological tests defined herein.
as §13, §14, §15, §16, §5, §17, §18, §8, §9, §10, §11, §19

[4] = U-937, read-out: Off-target effect (cell based assay) IC50 (U937, μM)
[5] = U-937, Table 2, assay 2, U937, 5000 cells per well, hTNF-Fc 100 ng/ml, Compound A 500 nM, Q-VD-OPh 10 μM, 48 hours
[6] = U-937, Table 2, assay 2, U937, read-out: Off-target effect (cell based assay) IC50 (U937)

IC50 [2]	IC50 (U937; [6])	Compound	IC50 ([1]; U-937, 48 h)	IC50 (U937; [4])	IC50 [3]	IC50 [1, 5]
6.38 µM	–	Cc1ccc(Nc2nccc(N(C)c3ccc(NC(=O)Nc4ccc(OC(F)(F)F)cc4)cc3)n2)cc1CN1CCN(C)CC1 [Compound 23, 1-(4-(methyl(2-((4-methyl-3-((4-methylpiperazin-1-yl)methyl)phenyl)amino)pyrimidin-4-yl)amino)phenyl)-3-(4-(trifluoromethoxy)phenyl)urea]	–	–	0.202 µM	–
2.28 µM	–	Cc1ccc(Nc2nccc(N(C)c3ccc(NC(=O)Nc4cc(F)cc(C(F)(F)F)c4)cc3)n2)cc1C(=O)N1CCOCC1 [Compound 25, 1-(3-fluoro-5-(trifluoromethyl)phenyl)-3-(4-(methyl(2-((4-methyl-3-(morpholine-4-carbonyl)phenyl)amino)pyrimidin-4-yl)amino)phenyl)urea]	–	–	0.0092 µM	–
2.7 µM	–	CNC(=O)c1cc(Nc2nccc(N(C)c3ccc(NC(=O)Nc4cc(F)cc(C(F)(F)F)c4)cc3)n2)ccc1N1CCOCC1 [Compound 27, 5-((4-((4-(3-(3-fluoro-5-(trifluoromethyl)phenyl)ureido)phenyl)(methyl)amino)pyrimidin-2-yl)amino)-N-methyl-2-morpholinobenzamide]	–	–	0.325 µM	–
0.98 µM	–	CC(=O)Nc1cc(Nc2nccc(N(C)c3ccc(NC(=O)Nc4ccc(OC(F)(F)F)cc4)cc3)n2)ccc1C [Compound 28, N-(2-methyl-5-((4-(methyl(4-(3-(4-(trifluoromethoxy)phenyl)ureido)phenyl)amino)pyrimidin-2-yl)amino)phenyl)acetamide]	–	–	0.093 µM	–
2.42 µM	0.513 µM	Cc1ccc(Nc2nccc(N(C)c3ccc(NC(=O)Nc4cc(F)cc(C(F)(F)F)c4)cc3)n2)cc1N1CCNC1=O [Compound 34, 1-(3-fluoro-5-(trifluoromethyl)phenyl)-3-(4-(methyl(2-((4-methyl-3-(2-oxoimidazolidin-1-yl)phenyl)amino)pyrimidin-4-yl)amino)phenyl)urea]	–	–	0.023 µM	29 nM
–	0.231 µM	CNC(=O)c1cc(Nc2nccc(N(C)c3ccc(NC(=O)Nc4cccc(CC(F)(F)F)c4)cc3)n2)ccc1C [Compound 38, N,2-dimethyl-5-((4-(methyl(4-(3-(3-(2,2,2-trifluoroethyl)phenyl)ureido)phenyl)amino)pyrimidin-2-yl)amino)benzamide]	–	–	–	2.3 nM
–	0.419 µM	CNC(=O)c1cc(Nc2nccc(N(C)c3ccc(NC(=O)Nc4cccc(OC(F)(F)F)c4)cc3)n2)ccc1C [Compound 39, N,2-dimethyl-5-((4-(methyl(4-(3-(3-(trifluoromethoxy)phenyl)ureido)phenyl)amino)pyrimidin-2-yl)amino)benzamide]	–	–	–	3.9 nM
–	> 10 µM	CN(c1ccc(NC(=O)Nc2ccc(OC(F)(F)F)cc2)cc1)c1ccnc(Nc2cccc(N3CC4(CCOCC4)CC3=O)c2)n1 [Compound 40, 1-(4-(methyl(2-((3-(3-oxo-8-oxa-2-azaspiro[4.5]decan-2-yl)phenyl)amino)pyrimidin-4-yl)amino)phenyl)-3-(4-(trifluoromethoxy)phenyl)urea]	–	–	–	7.5 nM
–	> 10 µM	Cc1ccc(Nc2nccc(N(C)c3ccc(NC(=O)Nc4ccc(OC(F)(F)F)cc4)cc3)n2)cc1N1CC2(CCOCC2)CC1=O [Compound 41, 1-(4-(methyl(2-((4-methyl-3-(3-oxo-8-oxa-2-azaspiro[4.5]decan-2-yl)phenyl)amino)pyrimidin-4-yl)amino)phenyl)-3-(4-(trifluoromethoxy)phenyl)urea]	–	–	–	14 nM

The next lines start with the molecule.

Compound	IC50 [2]	IC50 (U937; [6])	IC50 ([1]; U-937, 48 h)	IC50 (U937; [4])	IC50 [3]	IC50 [1, 5]
CNC(=O)c1cc(Nc2ncc(C)c(N(C)c3ccc(NC(=O)Nc4ccc(OC(F)(F)F)cc4)cc3)n2)ccc1C [Compound 6, N,2-dimethyl-5-((5-methyl-4-(methyl(4-(3-(4-(trifluoromethoxy)phenyl)ureido)phenyl)amino)pyrimidin-2-yl)amino)benzamide]	–	–	29 nM	> 1000 µM	–	–
Cc1ccc(Nc2ncc(F)c(N(C)c3ccc(NC(=O)Nc4cc(F)cc(C(F)(F)F)c4)cc3)n2)cc1N1CCCC1=O [Compound 24, 1-(4-((5-fluoro-2-((4-methyl-3-(2-oxopyrrolidin-1-yl)phenyl)amino)pyrimidin-4-yl)(methyl)amino)phenyl)-3-(3-fluoro-5-(trifluoromethyl)phenyl)urea]	1.24 µM	–	–	–	0.0089 µM	–
CNC(=O)c1cc(Nc2nccc(N(C)c3ccc(NC(=O)Nc4cc(Cl)cc(C(F)(F)F)c4)cc3)n2)ccc1C [Compound 29, 5-((4-((4-(3-(3-chloro-5-(trifluoromethyl)phenyl)ureido)phenyl)(methyl)amino)pyrimidin-2-yl)amino)-N,2-dimethylbenzamide]	2.05 µM	–	–	–	0.02 µM	–
CNC(=O)c1cc(Nc2nccc(N(C)c3ccc(NC(=O)Nc4cc(F)cc(C(F)(F)F)c4)cc3)n2)ccc1OC [Compound 30, 5-((4-((4-(3-(3-fluoro-5-(trifluoromethyl)phenyl)ureido)phenyl)(methyl)amino)pyrimidin-2-yl)amino)-2-methoxy-N-methylbenzamide]	6.68 µM	–	–	–	0.058 µM	–
CNC(=O)c1cc(Nc2nccc(N(C)c3ccc(NC(=O)Nc4cccc(C#N)c4)cc3)n2)ccc1C [Compound 33, 5-((4-((4-(3-(3-cyanophenyl)ureido)phenyl)(methyl)amino)pyrimidin-2-yl)amino)-N,2-dimethylbenzamide]	4.13 µM	–	–	–	0.164 µM	–
CNC(=O)c1cc(Nc2nccc(N(C)c3ccc(NC(=O)Nc4cc(F)cc(C(F)(F)F)c4)cc3)n2)ccc1CN1CCN(C)CC1 [Compound 35, 5-((4-((4-(3-(3-fluoro-5-(trifluoromethyl)phenyl)ureido)phenyl)(methyl)amino)pyrimidin-2-yl)amino)-N-methyl-2-((4-methylpiperazin-1-yl)methyl)benzamide]	–	0.841 µM	–	–	–	45 nM
Cc1ccc(Nc2nccc(N(C)c3ccc(NC(=O)Nc4cc(F)cc(C(F)(F)F)c4)cc3)n2)cc1C(=O)OCCO [Compound 36, 2-hydroxyethyl 5-((4-((4-(3-(3-fluoro-5-(trifluoromethyl)phenyl)ureido)phenyl)(methyl)amino)pyrimidin-2-yl)amino)-2-methylbenzoate]	–	2.42 µM	–	–	–	23 nM
CNC(=O)c1cc(Nc2nccc(N(C)c3ccc(NC(=O)Nc4cc(C(F)(F)F)cc(C(F)(F)F)c4)cc3)n2)ccc1C [Compound 37, 5-((4-((4-(3-(3,5-bis(trifluoromethyl)phenyl)ureido)phenyl)(methyl)amino)pyrimidin-2-yl)amino)-N,2-dimethylbenzamide]	–	1.09 µM	–	–	–	71 nM
CNC(=O)c1cc(Nc2nccc(N(C)c3ccc(NC(=O)Nc4cc(C#N)cc(C(F)(F)F)c4)cc3)n2)ccc1C [Compound 42]	–	> 10 µM	–	–	–	49 nM
CN(c1ccc(NC(=O)Nc2ccc(OC(F)(F)F)cc2)cc1)c1ccnc(Nc2cccc(S(N)(=O)=O)c2)n1 [drawing 174, reference compound]	–	–	75 nM	1.5 µM	–	–
